We go through 14 compounds from patent US20240238423A9, “TETRAHYDROISOQUINOLINE HETEROBIFUNCTIONAL BCL-XL DEGRADERS” (Treeline Biosciences, Inc., priority 2022, published 2024).

For the assay, the target named is T1, Human BCL-XL protein (N-terminal HiBiT tagged BCL-XL in HT1080 cells) (Homo sapiens, UniProt Q07817).
T1 construct: expressed in transfected cells; host or cells: HT-1080 (ATCC CCL-121), stably transduced with lentivirus pLV-UBC-N-HiBiT-BCL-XL-PGK-puro and selected with puromycin
Description: HiBiT based degradation assay. Format: cell-based. The conditions noted are these: HT1080 cells expressing HiBiT-BCL-XL; for Ymin (24 h) / Ymin (6 h): BCL-XL degradation normalized with DMSO control; for DC50: BCL-XL degradation. The method in brief:
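HT1080 cells stably transduced by lentivirus with N-terminally HiBiT-tagged human BCL-XL and kept under 1 μg/mL puromycin selection were seeded at three thousand cells per well in 40 μL RPMI 1640 into 384-well plates pre-spotted with compounds across a concentration range. Luminescence was read on a PHERAstar FSX, normalized to DMSO, and fitted with a four-parameter logistic model.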
In general terms: HiBiT is a short tag that completes a luciferase, so light tracks the accessible tagged protein.

SMILES strings stand for the structures. Read-outs that look alike come from different tables or passages of the source.

T1 sequence (Q07817 whole entry): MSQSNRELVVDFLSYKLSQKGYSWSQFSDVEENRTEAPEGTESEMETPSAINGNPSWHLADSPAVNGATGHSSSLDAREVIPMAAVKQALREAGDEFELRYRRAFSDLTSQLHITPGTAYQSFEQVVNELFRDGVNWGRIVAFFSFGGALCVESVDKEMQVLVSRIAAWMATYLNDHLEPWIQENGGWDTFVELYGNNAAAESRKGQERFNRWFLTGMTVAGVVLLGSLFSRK

For the compound `Cc1c(OCCCCN2CCC(CN3CCN(c4ccc5c(C6CCC(=O)NC6=O)nn(C)c5c4)CC3)CC2)cccc1-c1ccc(N2CCc3cccc(C(=O)Nc4nc5ccccc5s4)c3C2)nc1C(=O)O` (centres unmarked) [Compound 235, 6-[8-(1,3-benzothiazol-2-ylcarbamoyl)-3,4-dihydro-1H-isoquinolin-2-yl]-3-[3-[4-[4-[[4-[3-(2,6-dioxo-3-piperidyl)-1-methyl-indazol-6-yl]piperazin-1-yl]methyl]-1-piperidyl]butoxy]-2-methyl-phenyl]pyridine-2-carboxylic acid], the “Ymin (24 h)” value (24 h) is reported as “A (Ymin < 50%)”. The DC50 (24 h, read-out: EC50 (24 h)) is less than 0.1 µM.

`Cc1cc(OCCCC2CCN(CC(=O)Nc3cccc4c(C5CCC(=O)NC5=O)nn(C)c34)CC2)ccc1-c1ccc(N2CCc3cccc(C(=O)Nc4nc5ccccc5s4)c3C2)nc1C(=O)O` (centres unmarked) [Compound 236, 6-(8-(Benzo[d]thiazol-2-ylcarbamoyl)-3,4-dihydroisoquinolin-2(1H)-yl)-3-(4-(3-(1-(2-((3-(2,6-dioxopiperidin-3-yl)-1-methyl-1H-indazol-7-yl)amino)-2-oxoethyl)piperidin-4-yl)propoxy)-2-methylphenyl)picolinic acid]: the “Ymin (6 h)” value (6 h) is “B (50% ≤ Ymin < 70%)”. Moreover, the “Ymin (24 h)” value (24 h) is “B (50% ≤ Ymin < 70%)”. For the same compound, the DC50 runs as follows: (6 h, read-out: EC50 (6 h)) less than 0.1 µM; (24 h, read-out: EC50 (24 h)) less than 0.1 µM.

Consider `Cc1c(OCCCCCCCCCN2CCN(c3cccc4c(C5CCC(=O)NC5=O)nn(C)c34)CC2)cccc1-c1ccc(N2CCc3cccc(C(=O)Nc4nc5ccccc5s4)c3C2)nc1C(=O)O` (centres unmarked) [Compound 237, 6-[8-(1,3-benzothiazol-2-ylcarbamoyl)-3,4-dihydro-1H-isoquinolin-2-yl]-3-[3-[9-[4-[3-(2,6-dioxo-3-piperidyl)-1-methyl-indazol-7-yl]piperazin-1-yl]nonoxy]-2-methyl-phenyl]pyridine-2-carboxylic acid], for which the “Ymin (6 h)” value (6 h) was “A (Ymin < 50%)”. In addition, the DC50 (6 h, read-out: EC50 (6 h)) was less than 0.1 µM.

For `Cc1c(OCCOC2CCN(CC(=O)Nc3ccc4c(C5CCC(=O)NC5=O)nn(C)c4c3)CC2)cccc1-c1ccc(N2CCc3cccc(C(=O)Nc4nc5ccccc5s4)c3C2)nc1C(=O)O` (centres unmarked) [Compound 238, 6-(8-(benzo[d]thiazol-2-ylcarbamoyl)-3,4-dihydroisoquinolin-2(1H)-yl)-3-(3-(2-((1-(2-((3-(2,6-dioxopiperidin-3-yl)-1-methyl-1H-indazol-6-yl)amino)-2-oxoethyl)piperidin-4-yl)oxy)ethoxy)-2-methylphenyl)picolinic acid], the “Ymin (6 h)” value (6 h) is reported as “B (50% ≤ Ymin < 70%)”. Also, the “Ymin (24 h)” value (24 h) is reported as “B (50% ≤ Ymin < 70%)”. The DC50 reads like this: (6 h, read-out: EC50 (6 h)) less than 0.1 µM; (24 h, read-out: EC50 (24 h)) less than 0.1 µM.

With `Cc1c(O[C@H]2CC[C@H](CC(F)(F)C(=O)N3CCN(c4ccc5c(C6CCC(=O)NC6=O)nn(C)c5c4)CC3)CC2)cccc1-c1ccc(N2CCc3cccc(C(=O)Nc4nc5ccccc5s4)c3C2)nc1C(=O)O` (some centres unmarked) [Compound 239a, 6-(8-(benzo[d]thiazol-2-ylcarbamoyl)-3,4-dihydroisoquinolin-2(1H)-yl)-3-(3-(((1r,4r)-4-(3-(4-(3-(2,6-dioxopiperidin-3-yl)-1-methyl-1H-indazol-6-yl)piperazin-1-yl)-2,2-difluoro-3-oxopropyl)cyclohexyl)oxy)-2-methylphenyl)picolinic acid], the “Ymin (24 h)” value (24 h) was “B (50% ≤ Ymin < 70%)”. Moreover, the DC50 (24 h, read-out: EC50 (24 h)) is less than 0.1 µM.

In the case of `Cc1c(OCCC[C@@H]2CCN(CC(=O)Nc3cccc4c(C5CCC(=O)NC5=O)nn(C)c34)C2)cccc1-c1ccc(N2CCc3cccc(C(=O)Nc4nc5ccccc5s4)c3C2)nc1C(=O)O` (stereo partly drawn) [Compound 240a, 6-[8-(1,3-benzothiazol-2-ylcarbamoyl)-3,4-dihydro-1H-isoquinolin-2-yl]-3-[3-[3-[(3R)-1-[2-[[3-(2,6-dioxo-3-piperidyl)-1-methyl-indazol-7-yl]amino]-2-oxo-ethyl]pyrrolidin-3-yl]propoxy]-2-methyl-phenyl]pyridine-2-carboxylic acid], the “Ymin (24 h)” value (24 h) is reported as “B (50% ≤ Ymin < 70%)”. For the same compound, for the setting “24 h, read-out: EC50 (24 h)”, the DC50 was less than 0.1 µM.

For the compound `Cc1c(OCCC[C@H]2CCN(CC(=O)Nc3cccc4c(C5CCC(=O)NC5=O)nn(C)c34)C2)cccc1-c1ccc(N2CCc3cccc(C(=O)Nc4nc5ccccc5s4)c3C2)nc1C(=O)O` (stereo partly drawn) [Compound 240b, 6-(8-(benzo[d]thiazol-2-ylcarbamoyl)-3,4-dihydroisoquinolin-2(1H)-yl)-3-(3-(3-((3S)-1-(2-((3-(2,6-dioxopiperidin-3-yl)-1-methyl-1H-indazol-7-yl)amino)-2-oxoethyl)pyrrolidin-3-yl)propoxy)-2-methylphenyl)picolinic acid], the “Ymin (24 h)” value (24 h) is “B (50% ≤ Ymin < 70%)”. Moreover, under “24 h, read-out: EC50 (24 h)”, the DC50 was less than 0.1 µM.

With `Cc1c(Oc2ccc(CCN3CCN(c4cccc5c(C6CCC(=O)NC6=O)nn(C)c45)CC3)cc2)cccc1-c1ccc(N2CCc3cccc(C(=O)Nc4nc5ccccc5s4)c3C2)nc1C(=O)O` (centres unmarked) [Compound 241, 6-[8-(1,3-benzothiazol-2-ylcarbamoyl)-3,4-dihydro-1H-isoquinolin-2-yl]-3-[3-[4-[2-[4-[3-(2,6-dioxo-3-piperidyl)-1-methyl-indazol-7-yl]piperazin-1-yl]ethyl]phenoxy]-2-methyl-phenyl]pyridine-2-carboxylic acid], for the setting “24 h”, the “Ymin (24 h)” value is listed as “B (50% ≤ Ymin < 70%)”. Further, the DC50 (24 h, read-out: EC50 (24 h)) was less than 0.1 µM.

Turning to `Cc1cc(OCCCN2CCN(CC(=O)Nc3cccc4c(C5CCC(=O)NC5=O)nn(C)c34)CC2)ccc1-c1ccc(N2CCc3cccc(C(=O)Nc4nc5ccccc5s4)c3C2)nc1C(=O)O` (centres unmarked) [Compound 242, 6-[8-(1,3-benzothiazol-2-ylcarbamoyl)-3,4-dihydro-1H-isoquinolin-2-yl]-3-[4-[3-[4-[2-[[3-(2,6-dioxo-3-piperidyl)-1-methyl-indazol-7-yl]amino]-2-oxo-ethyl]piperazin-1-yl]propoxy]-2-methyl-phenyl]pyridine-2-carboxylic acid], the “Ymin (6 h)” value (6 h) is “C (Ymin ≥ 70%)”. Besides, the “Ymin (24 h)” value (24 h) is given as “C (Ymin ≥ 70%)”. For the same compound, the DC50 is 1 to 10 µM (6 h, read-out: EC50 (6 h)) and less than 0.1 µM (24 h, read-out: EC50 (24 h)).

As to `Cc1c(Oc2ccccc2CCC(=O)Nc2cccc3c(C4CCC(=O)NC4=O)nn(C)c23)cccc1-c1ccc(N2CCc3cccc(C(=O)Nc4nc5ccccc5s4)c3C2)nc1C(=O)O` (centres unmarked) [Compound 243, 6-(8-(benzo[d]thiazol-2-ylcarbamoyl)-3,4-dihydroisoquinolin-2(1H)-yl)-3-(3-(2-(3-((3-(2,6-dioxopiperidin-3-yl)-1-methyl-1H-indazol-7-yl)amino)-3-oxopropyl)phenoxy)-2-methylphenyl)picolinic acid], the “Ymin (6 h)” value (6 h) is recorded as “C (Ymin ≥ 70%)”. The “Ymin (24 h)” value (24 h) was “B (50% ≤ Ymin < 70%)”. Also, the DC50 is 0.1 to 1 µM (6 h, read-out: EC50 (6 h)) and less than 0.1 µM (24 h, read-out: EC50 (24 h)).

Consider `Cc1c(Oc2ccc(CCC(=O)N3CCN(c4ccc5c(C6CCC(=O)NC6=O)nn(C)c5c4)CC3)cc2)cccc1-c1ccc(N2CCc3cccc(C(=O)Nc4nc5ccccc5s4)c3C2)nc1C(=O)O` (centres unmarked) [Compound 244, 6-(8-(benzo[d]thiazol-2-ylcarbamoyl)-3,4-dihydroisoquinolin-2(1H)-yl)-3-(3-(4-(3-(4-(3-(2,6-dioxopiperidin-3-yl)-1-methyl-1H-indazol-6-yl)piperazin-1-yl)-3-oxopropyl)phenoxy)-2-methylphenyl)picolinic acid], for which, where the note is “6 h”, the “Ymin (6 h)” value was “C (Ymin ≥ 70%)”. The “Ymin (24 h)” value (24 h) is recorded as “B (50% ≤ Ymin < 70%)”. The DC50 (6 h, read-out: EC50 (6 h)) is 1 to 10 µM and the DC50 (24 h, read-out: EC50 (24 h)) is less than 0.1 µM.

Turning to `Cc1c(OCCCN2CCN(CC(=O)Nc3ccc4c(C5CCC(=O)NC5=O)nn(C)c4c3)C[C@@H]2C(F)(F)F)cccc1-c1ccc(N2CCc3cccc(C(=O)Nc4nc5ccccc5s4)c3C2)nc1C(=O)O` (stereo partly drawn) [Compound 245a, 6-(8-(benzo[d]thiazol-2-ylcarbamoyl)-3,4-dihydroisoquinolin-2(1H)-yl)-3-(3-(3-((2R)-4-(2-((3-(2,6-dioxopiperidin-3-yl)-1-methyl-1H-indazol-6-yl)amino)-2-oxoethyl)-2-(trifluoromethyl)piperazin-1-yl)propoxy)-2-methylphenyl)picolinic acid], the “Ymin (24 h)” value (24 h) was “B (50% ≤ Ymin < 70%)”. Moreover, the DC50 (24 h, read-out: EC50 (24 h)) was less than 0.1 µM.

With `Cc1c(OCCCN2CCN(CC(=O)Nc3ccc4c(C5CCC(=O)NC5=O)nn(C)c4c3)C[C@H]2C(F)(F)F)cccc1-c1ccc(N2CCc3cccc(C(=O)Nc4nc5ccccc5s4)c3C2)nc1C(=O)O` (stereo partly drawn) [Compound 245b, 6-(8-(benzo[d]thiazol-2-ylcarbamoyl)-3,4-dihydroisoquinolin-2(1H)-yl)-3-(3-(3-((2S)-4-(2-((3-(2,6-dioxopiperidin-3-yl)-1-methyl-1H-indazol-6-yl)amino)-2-oxoethyl)-2-(trifluoromethyl)piperazin-1-yl)propoxy)-2-methylphenyl)picolinic acid], for the setting “24 h”, the “Ymin (24 h)” value is given as “B (50% ≤ Ymin < 70%)”. In addition, the DC50 (24 h, read-out: EC50 (24 h)) was less than 0.1 µM.

On to `Cc1c(OCCCN2CCN(CC(=O)Nc3cccc4c(C5CCC(=O)NC5=O)nn(C)c34)C[C@@H]2C(F)(F)F)cccc1-c1ccc(N2CCc3cccc(C(=O)Nc4nc5ccccc5s4)c3C2)nc1C(=O)O` (stereo partly drawn) [Compound 246a, 6-(8-(benzo[d]thiazol-2-ylcarbamoyl)-3,4-dihydroisoquinolin-2(1H)-yl)-3-(3-(3-((2R)-4-(2-((3-(2,6-dioxopiperidin-3-yl)-1-methyl-1H-indazol-7-yl)amino)-2-oxoethyl)-2-(trifluoromethyl)piperazin-1-yl)propoxy)-2-methylphenyl)picolinic acid], for which, where the note is “24 h”, the “Ymin (24 h)” value is given as “B (50% ≤ Ymin < 70%)”. In addition, the DC50 (24 h, read-out: EC50 (24 h)) is less than 0.1 µM.
